Test results from article PMC11337160, “Chirality and pH Influence the Self-Assembly of Antimicrobial Lipopeptides with Diverse Nanostructures” (ACS Applied Bio Materials, 2024).
In brackets after ≈: the same amount, converted by molar mass. Non-standard residues stand in square brackets, D forms with d. Residues, ends and D or L forms follow the SMILES beside them. *: point of attachment. Palmitoyl = CCCCCCCCCCCCCCCC(=O)*

Key:
[1] = Cryo-TEM imaging of self-assembled nanostructures; type: physicochemical; conditions: 1 wt % aqueous solution, pH 8
Method: The Cryo-TEM imaging was performed using a field emission cryo-electron microscope (JEOL JEM-3200FSC), operating at 200 kV. To take the TEM images bright field mode with a zero-loss energy filter (omega type) was used, with a slit width of 20 eV. A Gatan UltraScan 4000 CCD camera was used to record the micrographs. During the entire experiment, the sample was kept at −187 °C. An automated FEI Vitrobot device was used to blot and vitrify samples on Quantifoil 3.5:1 holey carbon copper grids with a hole size of 3.5 μm. Before taking the images, grids were first plasma cleaned using a Gatan Solarus 9500 plasma cleaner, followed by transferring to the environmental chamber of a FEI Vitrobot at room temperature and 100% humidity. For sample spotting on the grid, 3 μL of sample solution was taken and spread on the grid. It was blotted twice and then vitrified in a 1:1 mixture of liquid ethane and propane at a temperature of −180 °C. The grids with vitrified sample solution were maintained at liquid nitrogen temperature and then cryo-transferred to the microscope.
The self-assembled nanostructure of these lipopeptides at acidic pH was investigated at the lower pH of 4.6 in our recent paper,[43] and here we report the unexpected observation of distinct self-assembled nanostructure of these lipopeptides at a higher pH. For cryo-TEM imaging at basic pH, 1 wt % aqueous solution of lipopeptides at pH 8 were prepared, this concentration being above the measured CAC values for these lipopeptides. […] In contrast, the TEM images of all the lipopeptides at pH 4.6 show small spherical micelles with a mean diameter of 4–9 nm (as reported previously,[43] with additional images in Figure S5).

[2] = system: Salmonella enterica NCTC 5188; test: Minimum bactericidal concentration (MBC); type: cell-based; conditions: 5 × 10^6 CFU/mL in MHB, lipopeptide 0-1000 μg/mL, 18 h at 37 °C, 10 μL spot-inoculated onto LB agar, overnight 37 °C
Method: (§1) Two Gram-negative strains (Escherichia coli K12 and Salmonella enterica NCTC 5188) and one Gram-positive strain (Staphylococcus aureus ATCC 12600) were employed to evaluate the potential bactericidal activity of tested lipopeptides. A single colony from each strain, pre-streaked onto an LB (lysogeny broth) agar plate, was inoculated into 5 mL of LB broth and incubated at 37 °C with shaking (250 rpm) for 18 h. Then, the bacterial culture was adjusted to 5 × 10^6 CFU mL^–1 mid-log phase in Mueller-Hinton broth (MHB), and aliquots were transferred to individual wells of a U-bottom 96-well microplate with increasing concentrations of lipopeptides (0–1000 μg mL^–1). Included positive and negative controls consisted of 0.97 μg mL^–1 ciprofloxacin or 1× PBS in MHB, respectively. After 18 h of incubation at 37 °C, 10 μL from each well was spot-inoculated onto LB agar and plates were further incubated at 37 °C overnight to assess the MBC which refers to the lowest concentration of an antibacterial agent required to kill bacteria (here denoted by colony growth on the plate).
(§2) Figure 9 Determination of MBC of lipopeptides P1, P1D, P2, and P2D. 10 μL aliquots from broth microdilution plates were spot-inoculated onto LB agar plates. The MBC refers to the lowest concentration of an antibacterial agent required to completely kill bacteria shown by the lack of colony formation. […] Positive control (+) 0.97 μg mL^–1 ciprofloxacin; negative control (−) 1X PBS.

E. coli [3] = conditions: MIC values were reported previously; cited from earlier work
Text: Table 1 Antimicrobial, Cytotoxic, and Selectivity Index Activities of Lipopeptides ^a | column: MIC (μg/mL) / E. coli

S. aureus = conditions: MIC values were reported previously; cited from earlier work
Text: Table 1 Antimicrobial, Cytotoxic, and Selectivity Index Activities of Lipopeptides ^a | column: MIC (μg/mL) / S. aureus

Escherichia coli K12 = type: cell-based; conditions: K12, 18 h
Method: as §1, §2

[4] = system: Staphylococcus aureus ATCC 12600; type: cell-based; conditions: ATCC 12600, 18 h
Method: as §1, §2

[5] = Critical aggregation concentration (CAC) by Thioflavin T fluorescence; type: physicochemical; conditions: ThT fluorescence probe (5 × 10^–4 wt % ThT), aqueous solution pH 8, 25 °C, λex 440 nm, emission 487 nm, breakpoint of I/I0 versus concentration
Method: For the fluorescence experiments, a Varian Cary Eclipse spectrofluorometer was used, and the samples were placed in 4 mm inner-width quartz cuvettes. For experimental settings, excitation and emission bandwidths of 2.5 nm were used. All the experiments were carried out at 25 °C. The CAC value for all the samples was determined by fluorescence experiments with Thioflavin T (ThT). ThT is well known to bind to amyloid fibrils, and can be used to determine CAC values.[44]−[46] First a stock solution (5 × 10^–4 wt %) ThT solution was prepared and using this solution, various concentrations of samples were prepared. The scan of the fluorescence spectra (λex = 440 nm) was taken from 460 to 670 nm.
The CAC value of the samples was calculated by plotting I/I0 versus concentration (in wt %). Here I0 is the maximum intensity for the control, i.e., ThT solution without the sample, and I signifies the maximum fluorescence intensity of ThT at a given concentration of lipopeptide.
To determine the CAC values of these lipopeptides, fluorescence probe assays using Thioflavin T (ThT) were performed, this dye being sensitive to the formation of β-sheet structures.[44]−[46] Emission spectra of the four lipopeptides were collected at different concentrations after excitation at 440 nm. At higher concentrations, an emission peak at 487 nm is visible. […] The lower CAC values for P2 and P2D are due to the higher hydrophobicity of tryptophan compared to tyrosine. […] However, since aggregation at the two different pH values gives rise to distinct nanostructures, this may be coincidental.

S. enterica = conditions: MIC values were reported previously; cited from earlier work
Text: Table 1 Antimicrobial, Cytotoxic, and Selectivity Index Activities of Lipopeptides ^a | column: MIC (μg/mL) / S. enterica

E. coli [6] = test: Live/Dead staining, membrane integrity (epifluorescence); type: cell-based; conditions: two-fold MIC of lipopeptide, 1 h at 37 °C, compared to P1 and P1D
Text: A bacteria Live/Dead staining kit (PromoKine) was employed to gain insight into the possible membrane disruption activity of tested lipopeptides. In summary, we used two color fluorescence dyes with varying ability to cross the cytoplasmatic membranes of bacteria. DMAO is a green-fluorescent nucleic acid dye which stains the cell membranes of both live and dead bacteria, while the red fluorescing EthD-III dye selectively stains dead bacteria with compromised membranes. With appropriately calculated volumes of dyes, live viable bacterial cells fluoresce green whilst dead compromised cells fluoresce red. For this assessment, a total of 5 × 10^6 mL^–1 exponential phase bacterial cells were incubated with two-fold MIC of lipopeptides for 1 h at 37 °C. Negative and positive controls consisted respectively of the addition of PBS and Triton-X100 (1%) to replace lipopeptides. Afterwards, the sample was centrifuged at 1000g for 10 min. The pellet was resuspended in 100 μL of 0.85% buffered NaCl with the epifluorescence dyes, following the kit instructions, and incubated for 15 min at room temperature. The samples were examined under a Nikon Eclipse Ti2 inverted microscope.
Figure 10 Membrane permeabilization of E. coli (A) and S. aureus (B) was observed through epifluorescence microscopy. […]

SMILES: CCCCCCCCCCCCCCCC(=O)N[C@@H](Cc1c[nH]c2ccccc12)C(=O)N[C@H](CCCCN)C(=O)N[C@H](CCCCN)C(N)=O [P2D] (Palmitoyl-Trp-[dK]-[dK]-NH2)
- mean diameter of nanostructure (cryo-TEM) [1]: 32.8 ± 4.5 nm
- self-assembled nanostructure (cryo-TEM) [1]: nanotube structures
- MBC S. enterica [2]: 125 µg/mL (≈ 179 µM)
- MIC E. coli (E. coli [3]): 31.25 to 62.5 µg/mL
- MIC S. aureus (S. aureus): 31.25 to 62.5 µg/mL
- MBC E. coli (Escherichia coli K12): 62.5 µg/mL (≈ 89.5 µM)
- MBC S. aureus [4]: 62.5 µg/mL (≈ 89.5 µM)
- CAC (critical aggregation concentration) [5]: 0.026 ± 0.004 wt %
- MIC S. enterica (S. enterica): 62.5 µg/mL (≈ 89.5 µM)
- formation of bacterial cell aggregates, E. coli (E. coli [6]): cell aggregates (clusters) was observed

SMILES: CCCCCCCCCCCCCCCC(=O)N[C@@H](Cc1c[nH]c2ccccc12)C(=O)N[C@@H](CCCCN)C(=O)N[C@@H](CCCCN)C(N)=O [P2] (Palmitoyl-Trp-Lys-Lys-NH2)
- mean diameter of nanostructure (cryo-TEM) [1]: 6.4 ± 2 nm
- self-assembled nanostructure (cryo-TEM) [1]: long intertwined nanofibers
- MBC S. enterica [2]: 250 µg/mL (≈ 358 µM)
- MIC E. coli (E. coli [3]): 15.63 to 62.5 µg/mL
- MIC S. aureus (S. aureus): 31.25 to 62.5 µg/mL
- MBC E. coli (Escherichia coli K12): 250 µg/mL (≈ 358 µM)
- MBC S. aureus [4]: 250 µg/mL (≈ 358 µM)
- CAC (critical aggregation concentration) [5]: 0.026 ± 0.004 wt %
- MIC S. enterica (S. enterica): 62.5 to 250 µg/mL
- formation of bacterial cell aggregates, E. coli (E. coli [6]): cell aggregates (clusters) was observed

SMILES: CCCCCCCCCCCCCCCC(=O)N[C@@H](Cc1ccc(O)cc1)C(=O)N[C@H](CCCCN)C(=O)N[C@H](CCCCN)C(N)=O [P1D] (Palmitoyl-Tyr-[dK]-[dK]-NH2)
- self-assembled nanostructure (cryo-TEM) [1]: twisted nanotape structures of variable width
- MBC S. enterica [2]: 125 µg/mL (≈ 185 µM)
- MIC E. coli (E. coli [3]): 15.63 to 31.25 µg/mL
- MIC S. aureus (S. aureus): 31.25 µg/mL (≈ 46.3 µM)
- MBC E. coli (Escherichia coli K12): 62.5 µg/mL (≈ 92.6 µM)
- MBC S. aureus [4]: 250 µg/mL (≈ 370 µM)
- CAC (critical aggregation concentration) [5]: 0.034 ± 0.005 wt %
- MIC S. enterica (S. enterica): 31.25 µg/mL (≈ 46.3 µM)

SMILES: CCCCCCCCCCCCCCCC(=O)N[C@@H](Cc1ccc(O)cc1)C(=O)N[C@@H](CCCCN)C(=O)N[C@@H](CCCCN)C(N)=O [P1] (Palmitoyl-Tyr-Lys-Lys-NH2)
- mean diameter of nanostructure (cryo-TEM) [1]: 11.7 ± 3.3 nm
- self-assembled nanostructure (cryo-TEM) [1]: long intertwined nanofibers
- MBC S. enterica [2]: 125 µg/mL (≈ 185 µM)
- MIC E. coli (E. coli [3]): 15.63 to 31.25 µg/mL
- MIC S. aureus (S. aureus): 31.25 to 62.5 µg/mL
- MBC E. coli (Escherichia coli K12): 62.5 µg/mL (≈ 92.6 µM)
- MBC S. aureus [4]: 62.5 µg/mL (≈ 92.6 µM)
- CAC (critical aggregation concentration) [5]: 0.040 ± 0.003 wt %
- MIC S. enterica (S. enterica): 31.25 to 62.5 µg/mL
